Assay results from patent US11298400B2, “Method of enhancing the therapeutic efficacy of fexapotide triflutate in treating LUTS” (Nymox Corporation, priority 2019, dated 2022).
Marks after values point to notes of the source that are not given here. Ends that are not written are not given here.

Assays:
[1] = system: Patients with BPH and who optionally also had LUTS; assay: Clinical trial: nocturia score (IPSS question 7) mean change from baseline; format: in vivo, human; settings: for improvement in nocturia score mean change from baseline: FT twice over at least one year; for Nocturia Score Mean Change From Baseline: intraprostatic, IPSS question 7, (SD)
Text: Improvements in obstructive and irritative symptoms can be measured in accordance with techniques known in the art. For example, uroflowmeters are known to differentiate urine weight change to provide a continuous plot of the flow rate vs. time that is smoothed by internal electronic filtering to permit precise (±5%) measurement of Qmax. Schafer W, et al. “Good urodynamic practices: Uroflowmetry, filling cystometry and pressure-flow studies,” Neurourol Urodynamics, Vol. 21, pp. 261-74 (2002). Nocturia can be measured in a variety of manners, most of which involve patients completing a questionnaire before and after treatment to establish a baseline, and then determine the difference (improvement, lack of improvement, worsening, etc.) from baseline after treatment. Exemplary questionnaires include evaluating the scores from the nocturia question included in the International Prostate Symptom Score (IPSS), assessing the number of nocturnal voids (Boyarsky symptom score), the Madsen-Iversen Symptom Score, and the ICSmale questionnaire. See, e.g., Chartier-Kastler, et al., “The Measurement of Nocturia and its Impact on Quality of Sleep and Quality of Life in LUTS/BPH,” Eur. Urol. Supp., Vol. 5, pp. 3-11 (2006). A preferred method of measuring nocturia is by determining the mean change from baseline of the nocturia question in the IPSS (question 7). Question 7 solicits from the patient how many times over the past month they had to get up to urinate from the time they went to bed until the time they got up—the score ranging from none (score 0) to 5 or more times (score 5).
(§1) Clinical trials were conducted on numerous individuals having BPH, some of whom also had LUTS. All protocols were done in accordance with applicable regulations, and carried out by physicians.
Patients with BPH and who optionally also had LUTS were given an intraprostatic injection of either a) FT2.5 in 10 mL phosphate buffered saline pH 7.2 (“PBS”) or b) FT 5.0 mg in PBS or c) FT 2.5 mg in PBS 2-dosages given >1 year apart, or d) PBS 10 mL alone, under double-blind conditions by a urologist in an office setting under ultrasound guidance. Patients were followed for >=3 months to several years with regular physical examinations, laboratory tests, and evaluations of symptoms. The mean difference from baseline nocturia scores to follow-up scores (nocturia scores are the values provided to question #7 in the IPSS) were calculated in FT treated subjects given single dose FT 2.5 mg, single dose FT 0.5 mg, 2-dose 2.5 mg>1 year apart, and Placebo treated controls.

[2] = system: prostate glandular epithelial cells; assay: Tissue culture genetic array, in vitro; format: cell-based; settings: tissue culture genetic array data
Text: FT selectively causes loss of cell membrane integrity, mitochondrial metabolic arrest, depletion of RNA, DNA lysis and aggregation, and cell fragmentation and cell loss. The apoptotic process leads to typical ultrastructural progressive changes of membranous disruption and swelling, progressively deepening nuclear invaginations with eventual membranous bleb formations and cell death and fragmentation into apoptotic bodies. Histologically, typical apoptotic changes with positive immunohistochemical staining of markers for apoptosis are found throughout the injected areas for up to several weeks after treatment.

[3] = system: Patients with BPH and who optionally also had LUTS; assay: Clinical trial: urinary peak flow rate (Qmax) mean change from baseline; format: in vivo, human; settings: for improvement in peak flow rate mean change from baseline: FT twice over at least one year; for Mean Change of Qmax from baseline: intraprostatic
Protocol: as §1
Patients were followed for >=3 months to several years with regular physical examinations, laboratory tests, and evaluations of symptoms. Urinary peak flow (Qmax) was measured by flow-meter readings using standard techniques, at 3 months and at 12 months or longer in subjects who were able to urinate adequate volume of urine (>125 mL) to provide a valid test. All peak flow measurements were assessed by a blinded central reader. The mean peak flow rate change from baseline was compared in different groups.

[4] = system: Patients with BPH and who optionally also had LUTS; assay: Clinical trial: inability to provide urine volume >125 mL (Qmax unable) after intraprostatic injection; format: in vivo, human; settings: for improvement in percentage of patients with Qmax failures: FT twice over at least one year; for % of Patients With Inability to Provide Urine Volume >125 mL: intraprostatic
Protocol: as §1
Patients with BPH and who optionally also had LUTS were given an intraprostatic injection of either a) FT 2.5 mg in phosphate buffered saline pH 7.2 (“PBS”) or b) PBS alone, under double-blind conditions by a urologist in an office setting under ultrasound guidance. Patients were followed for >=3 months to several years with regular physical examinations, laboratory tests, and evaluations of symptoms. […] Subjects who were unable to void >=125 mL despite drinking as much water as they wanted were classified as “Qmax unable”. The numbers of subjects who became Qmax unable was compared in different groups.

[5] = Two Doses of 2.5 mg FT > 1 year apart
[6] = compared to a single administration of four times the amount
[7] = compared to a single administration of twice the amount

In the case of “Fexapotide Triflutate (IDQQVLSRIKLEIKRCL; also: trifluoroacetate salt) [FT]”, the “improvement in nocturia score mean change from baseline” value ([1]; compared to a single administration of the same individual amount) was “about 37%”, the “improvement in nocturia score mean change from baseline” value ([1]; compared to a single administration of twice the individual amount) was “about 19.4%” and the “improvement in nocturia score mean change from baseline” value ([1]; compared to the control) was “about 48%”. For the same substance, the “Nocturia Score Mean Change From Baseline” value ([1]; Single Dose of 5.0 mg FT) was −0.54 (SD 1.1)*, the “Nocturia Score Mean Change From Baseline” value ([1]; Single Dose of 10.0 mg FT) was −0.62 (SD 1.64)* and the “Nocturia Score Mean Change From Baseline” value [1, 5] was −0.74 (SD 1.26)**, ***. The “effect on caspase, tumor necrosis factor and BCL pathways” value [2] was “stimulates caspase pathways”, the “improvement in peak flow rate mean change from baseline” value [3, 6] was “about 47%” and the “improvement in peak flow rate mean change from baseline” value [3, 7] was “about 102%”. For the same substance, the “improvement in peak flow rate mean change from baseline” value ([3]; compared to the control) was “about 111%”, the “Mean Change of Qmax from baseline” value ([3]; Single Dose of 5.0 mg FT) was 1.28 mL/s and the “Mean Change of Qmax from baseline” value ([3]; Single Dose of 10.0 mg FT) was 1.76 mL/s. The “Mean Change of Qmax from baseline” value [3, 5] was 2.59 mL/s, the “inhibition of the progression of urinary flow worsening” value (from here on “inhibition”) ([4]; 2 single dosages of 2.5 mg separated by >1 year, vs one-time 5.0 mg or 10.0 mg dose) was “significantly better inhibition” and the “improvement in percentage of patients with Qmax failures” value (“improvement in percentage of patients” for short) [4, 6] was “about 83.3%”. For the same substance, the “improvement in percentage of patients” value [4, 7] was “about 81.4%”, the “improvement in percentage of patients” value ([4]; compared to the control) was “about 77%” and the “% of Patients With Inability to Provide Urine Volume >125 mL” value (“% of Patients With Inability” below) ([4]; Single Dose of 5.0 mg FT, 90 days after last treatment) was 21%* (90 days). For the same substance, the “% of Patients With Inability” value ([4]; Single Dose of 10.0 mg FT, 90 days after last treatment) was 23.3%** (90 days), the “% of Patients With Inability” value ([4]; Two Doses of 2.5 mg FT > 1 year apart, 180 days after last treatment) was 3.9% (180 days) and the “inhibition” value ([4]; double (two 2.5 mg doses) or 4X (four 2.5 mg doses) single dose, vs single dose 2.5 mg) was “did not have significantly better response than single dose 2.5 mg”. The “inhibition” value ([4]; single dose of FT 2.5 mg, after 3 months, vs control groups) was “not significantly better than control groups”.
